# Data as given in patent US7393870B2, “3-(heteroarylamino)methylene-1, 3-dihydro-2H-indol-2-ones as kinase inhibitors” (Allergan, Inc., priority 2001, dated 2008).
# System: VEGF induced increases in intracellular calcium levels in HUVEC (human umbilical vein endothelial cells)
# Assay: VEGF Stimulated Ca++ signal assay (FLIPR)
# Assay type: cell-based
# Details: 10 μM compound, 30 min pre-incubation, VEGF 5 ng/mL
# Experimental: VEGF Stimulated Ca^++ Signal in vitro
# (§1) Automated FLIPR (Fluorometric Imaging Plate Reader) technology was used to screen for inhibitors of VEGF induced increases in intracellular calcium levels in fluorescent dye loaded endothelial cells. HUVEC (human umbilical vein endothelial cells) (Clonetics) were seeded in 96-well fibronectin coated black-walled plates overnight @ 37° C./5% CO2. Cells were loaded with calcium indicator Fluo-4 for 45 minutes at 37° C. Cells were washed 4 times (Original Cell Wash, Labsystems) to remove extracellular dye. Test compounds were reconstituted in 100% DMSO and added to the cells to give a final DMSO concentration of 0.1%. […] Changes in fluorescence at 516 nm were measured simultaneously in all 96 wells using a cooled CCD camera. Data were generated by determining max-min fluorescence levels for unstimulated, stimulated, and drug treated samples. IC50 values for test compounds were calculated from % inhibition of VEGF stimulated responses in the absence of inhibitor. Protocol for KDR Assay: The cytoplasmic domain of the human VEGF receptor (VEGFR-2) was expressed as a Histidine-tagged fusion protein following infection of insect cells using an engineered baculovirus. His-VEGFR-2 was purified to homogeneity, as determined by SDS-PAGE, using nickel resin chromatography. […]
row,Structure (SMILES),inhibition at 10 µM [%]
1,Cc1cc(C)c(Cc2cc(NC=C3C(=O)Nc4ccccc43)[nH]n2)c(C)c1 [Example 36],69.3

# Same assay, conditions: VEGF 5 ng/mL, 0.01 to 10.0 μM
row,Structure (SMILES),IC50 [µM]
1,Cc1cc(C)c(Cc2cc(NC=C3C(=O)Nc4ccccc43)[nH]n2)c(C)c1 [Example 36],5.9

# System: VEGF-induced EBD extravasation
# Assay: Miles Assay: VEGF-induced Dermal Extravasation in Guinea Pig
# Assay type: in vivo
# Details: oral administration, Table 3
# Experimental: as §1
row,Structure (SMILES),"in-vivo activity (Miles Assay, in words)"
1,"Cc1cc(NC=C2C(=O)Nc3ccc(F)cc32)n[nH]1 [Example 26, 5-Fluoro-3-[(5-methyl-1H-pyrazol-3-ylamino)-methylene]-1,3-dihydro-indol-2-one]",significant in-vivo activity
2,"Cc1cccc2c1C(=CNc1cc[nH]n1)C(=O)N2 [Example 6, 4-Methyl-3-[(1H-pyrazol-3-ylamino)-methylene]-1,3-dihydro-indol-2-one]",significant in-vivo activity

# Biological target: T1, cytoplasmic domain of the human VEGF receptor (VEGFR-2) (Homo sapiens, UniProt P35968)
# T1 construct: The cytoplasmic domain of the human VEGF receptor (VEGFR-2) was expressed as a Histidine-tagged fusion protein; His (Histidine tag); made in house; host or cells: insect cells infected with an engineered baculovirus
# Assay: KDR Assay (kinase ELISA, poly-Glu-Tyr substrate)
# Assay type: biochemical
# Details: His-VEGFR-2, 3.6 μM ATP
# Experimental: Automated FLIPR (Fluorometric Imaging Plate Reader) technology was used to screen for inhibitors of VEGF induced increases in intracellular calcium levels in fluorescent dye loaded endothelial cells. HUVEC (human umbilical vein endothelial cells) (Clonetics) were seeded in 96-well fibronectin coated black-walled plates overnight @ 37° C./5% CO2. Cells were loaded with calcium indicator Fluo-4 for 45 minutes at 37° C. Cells were washed 4 times (Original Cell Wash, Labsystems) to remove extracellular dye. Test compounds were reconstituted in 100% DMSO and added to the cells to give a final DMSO concentration of 0.1%. For screening, cells were pre-incubated with test agents for 30 minutes, at a single concentration (10 μM) or at concentrations ranging from 0.01 to 10.0 μM followed by VEGF stimulation (5 ng/mL). Changes in fluorescence at 516 nm were measured simultaneously in all 96 wells using a cooled CCD camera. Data were generated by determining max-min fluorescence levels for unstimulated, stimulated, and drug treated samples. IC50 values for test compounds were calculated from % inhibition of VEGF stimulated responses in the absence of inhibitor. Protocol for KDR Assay: The cytoplasmic domain of the human VEGF receptor (VEGFR-2) was expressed as a Histidine-tagged fusion protein following infection of insect cells using an engineered baculovirus. His-VEGFR-2 was purified to homogeneity, as determined by SDS-PAGE, using nickel resin chromatography. Kinase assays were performed in 96 well microtiter plates that were coated overnight with 30 μg of poly-Glu-Tyr (4:1) in 10 mM Phosphate Buffered Saline (PBS), pH 7.2-7.4. The plates were incubated with 1% BSA and then washed four times with PBS prior to starting the reaction. Reactions were carried out in 120 μL reaction volumes containing 3.6 μM ATP in kinase buffer (50 mM Hepes buffer pH 7.4, 20 mM MgCl2, 0.1 mM MnCl2 and 0.2 mM Na3VO4). Test compounds were reconstituted in 100% DMSO and added to the reaction to give a final DMSO concentration of 5%. Reactions were initiated by the addition 0.5 ng of purified protein. Following a ten minute incubation at 25° C., the reactions were washed four times with PBS containing 0.05% Tween-20. 100 μl of a monoclonal anti-phosphotyrosine antibody-peroxidase conjugate was diluted 1:10000 in PBS-Tween-20 and added to the wells for 30 minutes. Following four washes with PBS-Tween-20, 100 μl of 0-Phenylenediamine Dihydrochloride in Phosphate-citrate buffer, containing urea hydrogen peroxide, was added to the wells for 7 minutes as a colorimetric substrate for the peroxidase. The reaction was terminated by the addition of 100 μl of 2.5N H2SO4 to each well and read using a microplate ELISA reader set at 492 nm. IC50 values for compound inhibition were calculated directly from graphs of optical density (arbitrary units) versus compound concentration following subtraction of blank values. Miles Assay Description VEGF-induced Dermal Extravasation in Guinea Pig (Miles Assay). Male Hartley guinea pigs (300-600 g) were anesthetized with isofluorane, sheared, and given a single oral dose of drug or the respective vehicle. Ten minutes prior to the end of drug treatment, guinea pigs were anesthetized with isofluorane, and 0.5% Evans blue dye (EBD) in PBS (13-15 mg/kg dose of EBD) was injected intravenously. After 5 minutes, triplicate intradermal injections of 100 ng rhVEGF165 in 100 μl PBS and of 100 μl PBS alone were administered on the flank. After 20 minutes, each animal was euthanized with Pentosol, and the skin containing the intradermal injection sites was removed for image analysis.
# T1 sequence (P35968 786-1356 limits assumed): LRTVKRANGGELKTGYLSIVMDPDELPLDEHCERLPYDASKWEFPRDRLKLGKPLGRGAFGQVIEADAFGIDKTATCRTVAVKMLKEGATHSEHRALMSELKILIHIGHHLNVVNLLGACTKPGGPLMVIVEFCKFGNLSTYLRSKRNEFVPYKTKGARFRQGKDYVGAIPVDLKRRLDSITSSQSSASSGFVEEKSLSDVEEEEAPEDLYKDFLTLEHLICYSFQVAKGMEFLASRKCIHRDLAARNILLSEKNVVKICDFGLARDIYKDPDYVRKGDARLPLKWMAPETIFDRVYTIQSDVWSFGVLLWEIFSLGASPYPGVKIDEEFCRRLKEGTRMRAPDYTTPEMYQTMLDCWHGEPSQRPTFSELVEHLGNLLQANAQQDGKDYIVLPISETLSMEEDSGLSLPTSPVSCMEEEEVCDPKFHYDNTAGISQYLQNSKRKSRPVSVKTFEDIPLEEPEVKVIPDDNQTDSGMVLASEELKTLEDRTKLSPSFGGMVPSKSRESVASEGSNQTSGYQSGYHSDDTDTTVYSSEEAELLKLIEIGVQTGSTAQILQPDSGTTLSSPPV
row,Structure (SMILES),IC50 [µM]
1,Cc1cc(C)c(Cc2cc(NC=C3C(=O)Nc4ccccc43)[nH]n2)c(C)c1 [Example 36],≥ 10
2,"O=C1Nc2ccccc2C1=CNc1cc(Cc2ccccc2)n[nH]1 [Example 40, 3-[(5-Benzyl-2H-pyrazol-3-ylamino)-methylene]-1,3-dihydro-indol-2-one]",≥ 10
3,"Cc1cc(C)c2c(NC=C3C(=O)Nc4ccccc43)n[nH]c2n1 [Example 25, 3-[(4,6-Dimethyl-1H-pyrazolo[3,4-b]pyridin-3-ylamino)-methylene]-1,3-dihydro-indol-2-one]",≥ 10
4,"Cc1ccc(-c2cc(NC=C3C(=O)Nc4ccccc43)[nH]n2)c(C)c1 [Example 34, 3-{[5-(2,4-Dimethyl-phenyl)-2H-pyrazol-3-ylamino]-methylene}-1,3-dihydro-indol-2-one]",≥ 10
5,"O=C1Nc2ccccc2C1=CNc1cc(-c2cc(OCc3ccccc3)cc(OCc3ccccc3)c2)n[nH]1 [Example 31, 3-{[5-(3,5-Bis-benzyloxy-phenyl)-2H-pyrazol-3-ylamino]-methylene}-1,3-dihydro-indol-2-one]",≥ 10
6,"Cc1cccc2c1C(=CNc1n[nH]c(-c3ccccc3)c1Br)C(=O)N2 [Example 12, 3-[(4-Bromo-5-phenyl-1H-pyrazol-3-ylamino)-methylene]-4-methyl-1,3-dihydro-indol-2-one]",≥ 10
7,"Cc1cccc(Cc2cc(NC=C3C(=O)Nc4ccccc43)[nH]n2)c1 [Example 39, 3-{[5-(3-Methyl-benzyl)-2H-pyrazol-3-ylamino]-methylene}-1,3-dihydro-indol-2-one]",≥ 10
8,"COC(=O)c1ccc(-c2cc(NC=C3C(=O)Nc4ccccc43)n[nH]2)cc1 [Example 24, 4-{5-[(2-Oxo-1,2-dihydro-indol-3-ylidenemethyl)-amino]-2H-pyrazol-3-yl}-benzoic acid methyl ester]",≥ 10
9,"O=C1Nc2ccc(Cl)cc2C1=CNc1n[nH]c(-c2ccccc2)c1Br [Example 13, 3-[(4-Bromo-5-phenyl-1H-pyrazol-3-ylamino)-methylene]-5-chloro-1,3-dihydro-indol-2-one]",≥ 10
